Like-named read-outs stand apart in the source and are kept apart here.
How the values were obtained:
Assay in all cases: microbe, parasite or virus in culture
Type in all cases: cell-based, Hepatitis C virus (HCV)
HCV replicon 1AY93H = conditions: Replicon Assay A
How it was run: (§1)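 Replicon cells were seeded at 2000 cells/well with test compound in 0.5% DMSO and 5% FBS, then harvested on day 3. Replicon RNA was measured by multiplex TaqMan real-time RT-PCR, using cyclophilin RNA as the endogenous control and quantified against standard curves of HCV replicon total RNA.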

HCV replicon 1A = conditions: Replicon Assay A
How it was run: as §1

HCV replicon 2B = conditions: Replicon Assay A
How it was run: as §1

HCV replicon 1AQ30D = conditions: Replicon Assay B
HCV replicon 1B = conditions: Replicon Assay B
[1] = read-out: 1A Y93H IC50, HCV replicon 1A Y93H
[2] = read-out: 2B IC50, HCV replicon 2B
[3] = read-out: 1A Q30D IC50, HCV replicon 1A Q30D
[4] = read-out: 1A Y93H IC50, replicon 1AY93H
[5] = Hepatitis C virus, read-out: 1A Q30D IC50 (nM), replicon 1AQ30D
[6] = read-out: 1A Q30D IC50, replicon 1AQ30D
[7] = Hepatitis C virus, read-out: 1A Q30D IC50, HCV replicon 1A Q30D
[8] = Hepatitis C virus, HCV replicon 1B
[9] = Hepatitis C virus, HCV replicon 1A
[10] = Hepatitis C virus, read-out: 1A Y93H IC50 (nM), replicon 1AY93H
[11] = Hepatitis C virus, read-out: 2B IC50 (nM), replicon 2B
[12] = Hepatitis C virus, read-out: 1A Y93H IC50, HCV replicon 1A Y93H
[13] = Hepatitis C virus, read-out: 2B IC50, HCV replicon 2B

Structure (SMILES)	IC50 (HCV replicon 1AY93H; [1])	IC50 (HCV replicon 1A; HCV replicon 1A)	IC50 (HCV replicon 2B; [2])	IC50 (HCV replicon 1B; HCV replicon 1B)	IC50 (HCV replicon 1AY93H; [4])	IC50 (HCV replicon 2B; read-out: 2B IC50, replicon 2B)	IC50 (HCV replicon 1B; Hepatitis C virus, replicon 1B)	further results
COC(=O)NC(C(=O)N1[C@@H]2C[C@@H]2C[C@H]1c1ncc(-c2ccc3c(c2)c(F)c2n3C(c3ccc(C4CC4)s3)Oc3cc(-c4cnc([C@@H]5CCCN5C(=O)[C@@H](NC(=O)OC)C(C)C)[nH]4)ccc3-2)[nH]1)C1C[C@@H](C)O[C@@H](C)C1 (single isomer, unassigned) [Compound 645]	0.0222 nM	2.6 pM	0.0686 nM	2.4 pM	–	–	–	IC50 (HCV replicon 1AQ30D; [3]): 0.25 nM
COC(=O)N[C@H](C(=O)N1CCC[C@H]1c1ncc(-c2cc(F)c3c(c2)OC(c2ccc(CCF)s2)n2c-3cc3cc(-c4cnc([C@@H]5CCCN5C(=O)[C@@H](NC(=O)OC)C(C)C)[nH]4)ccc32)[nH]1)C(C)C (single isomer, unassigned) [Compound 44]	–	–	–	–	0.012 nM	0.1 nM	1.2 pM	IC50 (HCV replicon 1A; replicon 1A): 1.5 pM; IC50 (HCV replicon 1AQ30D; [5]): 0.54 nM
CCc1ccc(C2Oc3cc(-c4cnc([C@@H]5CCCN5C(=O)[C@@H](NC(=O)OC)C(C)C)[nH]4)cc(F)c3-c3cc4cc(-c5cnc([C@@H]6C[C@H]7C[C@H]7N6C(=O)C(NC(=O)OC)C6CCOC(C)(C)C6)[nH]5)ccc4n32)s1 (single isomer, unassigned) [Compound 200]	–	–	–	–	0.002 nM	0.014 nM	3 pM	IC50 (HCV replicon 1A; replicon 1A): 2.1 pM; IC50 (HCV replicon 1AQ30D; [6]): 0.036 nM
COC(=O)NC(C(=O)N1CCC[C@H]1c1ncc(-c2ccc3c(c2)cc2n3C(c3ccc(C4CC4)s3)Oc3cc(-c4cnc([C@@H]5CCCN5C(=O)[C@@H](NC(=O)OC)C(C)C)[nH]4)cc(F)c3-2)[nH]1)C1CCO[C@H](C)C1 (single isomer, unassigned) [Compound 134]	–	–	–	–	0.002 nM	0.003 nM	–	IC50 (HCV replicon 1A; replicon 1A): 2.5 pM; IC50 (HCV replicon 1AQ30D; [6]): 0.015 nM; IC50 (HCV replicon 1B; replicon 1B): 2.6 pM
COC(=O)N[C@H](C(=O)N1CCC[C@H]1c1ncc(-c2cc(C)c3c(c2)OC(c2ccc(C4CC4)s2)n2c-3cc3cc(-c4cnc([C@@H]5CCCN5C(=O)[C@@H](NC(=O)OC)C(C)C)[nH]4)ccc32)[nH]1)C(C)C (single isomer, unassigned) [Compound 753]	0.06 nM	5.7 pM	0.023 nM	2 pM	–	–	–	IC50 (HCV replicon 1AQ30D; [3]): 0.639 nM
COC(=O)NC(C(=O)N1CCC[C@H]1c1ncc(-c2ccc3c(c2)cc2n3C(c3cc4c(s3)CCC4)Oc3cc(-c4cnc([C@@H]5CCCN5C(=O)[C@@H](NC(=O)OC)C(C)C)[nH]4)cc(C)c3-2)[nH]1)C1CCOC(C)(C)C1 (single isomer, unassigned) [Compound 853]	0.085 nM	> 3.6 pM	0.011 nM	4.2 pM	–	–	–	IC50 (HCV replicon 1AQ30D; [7]): 0.705 nM
COC(=O)N[C@H](C(=O)N1C[C@H](F)C[C@H]1c1ncc(-c2ccc3c(c2)cc2n3C(c3cc4ccccc4s3)Oc3cc(-c4cnc([C@@H]5CCCN5C(=O)[C@@H](NC(=O)OC)C5CCOCC5)[nH]4)ccc3-2)[nH]1)C(C)C (single isomer, unassigned) [Compound 625]	0.0049 nM	1.9 pM	0.145 nM	–	–	–	–	IC50 (HCV replicon 1AQ30D; [7]): 0.359 nM; IC50 (HCV replicon 1B; [8]): 3.1 pM
COC(=O)N[C@H](C(=O)N1CCC[C@H]1c1ncc(-c2cc(F)c3c(c2)OC(c2ccc(C4(C)CC4)s2)n2c-3cc3cc(-c4cnc([C@@H]5CCCN5C(=O)[C@@H](NC(=O)OC)C(C)C)[nH]4)ccc32)[nH]1)C(C)C (single isomer, unassigned) [Compound 836]	–	2.1 pM	–	1.8 pM	–	–	–	IC50 (HCV replicon 1AY93H; HCV replicon 1A Y93H, read-out: 1A Y93H IC50): 0.016 nM; IC50 (HCV replicon 2B; HCV replicon 2B, read-out: 2B IC50): 0.06 nM; IC50 (HCV replicon 1AQ30D; HCV replicon 1A Q30D, read-out: 1A Q30D IC50): 0.297 nM
COC(=O)NC(C(=O)N1CCC[C@H]1c1ncc(-c2ccc3c(c2)cc2n3C(c3ccc(F)s3)Oc3cc(-c4cnc([C@@H]5CCCN5C(=O)[C@@H](NC(=O)OC)C(C)C)[nH]4)cc(F)c3-2)[nH]1)C1C[C@@H](C)O[C@@H](C)C1 (single isomer, unassigned) [Compound 348]	–	–	–	–	0.0149 nM	0.0326 nM	2.7 pM	IC50 (HCV replicon 1A; Hepatitis C virus, replicon 1A): 1.9 pM; IC50 (HCV replicon 1AQ30D; [5]): 0.387 nM
COC(=O)N[C@H](C(=O)N1CCC[C@H]1c1ncc(-c2ccc3c(c2)OC(c2ccc(C4CC4)s2)n2c-3c(F)c3cc(-c4cnc([C@@H]5C[C@H]6C[C@H]6N5C(=O)[C@@H](NC(=O)OC)C(C)C)[nH]4)ccc32)[nH]1)C(C)C (single isomer, unassigned) [Compound 611]	0.0115 nM	–	0.183 nM	–	–	–	–	IC50 (HCV replicon 1A; [9]): 1.9 pM; IC50 (HCV replicon 1AQ30D; [3]): 0.443 nM; IC50 (HCV replicon 1B; [8]): 1.4 pM
COC(=O)N[C@H](C(=O)N1CCC[C@H]1c1ncc(-c2cc(F)c3c(c2)OC(c2ccc(CC(C)C)s2)n2c-3cc3cc(-c4cnc([C@@H]5CCCN5C(=O)[C@@H](NC(=O)OC)C(C)C)[nH]4)ccc32)[nH]1)C(C)C (single isomer, unassigned) [Compound 520]	0.0828 nM	9.47 pM	0.593 nM	–	–	–	–	IC50 (HCV replicon 1AQ30D; [7]): 1.91 nM; IC50 (HCV replicon 1B; [8]): 9.24 pM
COC(=O)N[C@H](C(=O)N1CCC[C@H]1c1nc(-c2cc(F)c3c(c2)OC(c2ccc(C4CC4)s2)n2c-3cc3cc(-c4cnc([C@@H]5CCCN5C(=O)[C@@H](NC(=O)OC)C5C[C@@H](C)O[C@@H](C)C5)[nH]4)ccc32)c[nH]1)C(C)C (stereo partly shown) [Compound 190]	–	–	–	–	–	–	1.4 pM	IC50 (HCV replicon 1AY93H; [10]): 0.002 nM; IC50 (HCV replicon 1A; Hepatitis C virus, replicon 1A): 1.1 pM; IC50 (HCV replicon 2B; [11]): 0.003 nM; IC50 (HCV replicon 1AQ30D; [5]): 0.013 nM
COC(=O)NC(C(=O)N1CCC[C@H]1c1ncc(-c2ccc3c(c2)c(F)c2n3C(c3ccc(C4CC4)s3)Oc3cc(-c4cnc([C@@H]5CCCN5C(=O)[C@@H](NC(=O)OC)C(C)C)[nH]4)cc(F)c3-2)[nH]1)C1CCOC(C)(C)C1 (single isomer, unassigned) [Compound 413]	–	–	–	–	–	–	–	IC50 (HCV replicon 1AY93H; [12]): 0.0141 nM; IC50 (HCV replicon 1A; [9]): 3 pM; IC50 (HCV replicon 2B; [13]): 0.0071 nM; IC50 (HCV replicon 1AQ30D; [7]): 0.278 nM; IC50 (HCV replicon 1B; [8]): 3 pM
COC(=O)NC(C(=O)N1CCC[C@H]1c1ncc(-c2ccc3c(c2)cc2n3C(c3cc4ccccc4s3)Oc3cc(-c4cnc([C@@H]5CCCN5C(=O)[C@@H](NC(=O)OC)C5CCOCC5)[nH]4)cc(F)c3-2)[nH]1)C(C)(C)F (single isomer, unassigned) [Compound 184]	–	–	–	–	0.16 nM	0.076 nM	–	IC50 (HCV replicon 1A; replicon 1A): 2 pM; IC50 (HCV replicon 1AQ30D; [6]): 0.21 nM; IC50 (HCV replicon 1B; replicon 1B): 2 pM
COC(=O)N[C@H](C(=O)N1C2CC2C[C@H]1c1ncc(-c2cc(F)c3c(c2)OC(c2ccc(C4CC4)s2)n2c-3cc3cc(-c4cnc([C@@H]5CCCN5C(=O)[C@@H](NC(=O)OC)C5C[C@@H](C)O[C@@H](C)C5)[nH]4)ccc32)[nH]1)C(C)C (single isomer, unassigned) [Compound 557]	0.00464 nM	3.1 pM	0.0151 nM	2.49 pM	–	–	–	IC50 (HCV replicon 1AQ30D; [3]): 0.041 nM
COC(=O)NC(C(=O)N1CCC[C@H]1c1ncc(-c2ccc3c(c2)cc2n3C(c3ccc(C4CC4)s3)Oc3cc(-c4cnc([C@@H]5CCCN5C(=O)[C@@H](NC(=O)OC)C(C)C)[nH]4)cc(F)c3-2)[nH]1)C1CCO[C@H](C)C1 (single isomer, unassigned) [Compound 139]	–	–	–	–	0.085 nM	0.11 nM	–	IC50 (HCV replicon 1A; replicon 1A): 1.9 pM; IC50 (HCV replicon 1AQ30D; [6]): 1.03 nM; IC50 (HCV replicon 1B; replicon 1B): 1.4 pM
COC(=O)N[C@H](C(=O)N1CCC[C@H]1c1ncc(-c2cc(F)c3c(c2)OC(c2ccsc2)n2c-3cc3cc(-c4cnc([C@@H]5CCCN5C(=O)[C@@H](NC(=O)OC)C(C)C)[nH]4)ccc32)[nH]1)C(C)C (single isomer, unassigned) [Compound 317]	–	–	–	–	0.11 nM	0.94 nM	1.6 pM	IC50 (HCV replicon 1A; Hepatitis C virus, replicon 1A): 1.2 pM; IC50 (HCV replicon 1AQ30D; [5]): 2.58 nM
COC(=O)NC(C(=O)N1CCC[C@@H]1c1ncc(-c2ccc3c(c2)cc2n3C(c3ccc(CC4CC4)s3)Oc3cc(-c4cnc([C@@H]5CCCN5C(=O)[C@@H](NC(=O)OC)C(C)C)[nH]4)cc(F)c3-2)[nH]1)C1C[C@@H](C)O[C@@H](C)C1 (stereo partly shown) [Compound 376]	–	–	–	–	–	–	2.9 pM	IC50 (HCV replicon 1AY93H; [10]): 0.0023 nM; IC50 (HCV replicon 1A; Hepatitis C virus, replicon 1A): 2.6 pM; IC50 (HCV replicon 2B; [11]): 0.006 nM; IC50 (HCV replicon 1AQ30D; [5]): 0.0424 nM
COC(=O)N[C@H](C(=O)N1CCC[C@H]1c1ncc(-c2ccc3c(c2)OC(c2ccc(C4CC4)s2)n2c-3c(F)c3cc(-c4cnc([C@@H]5C[C@H]6C[C@H]6N5C(=O)[C@@H](NC(=O)OC)C5C[C@@H](C)O[C@@H](C)C5)[nH]4)ccc32)[nH]1)C(C)C (single isomer, unassigned) [Compound 406]	–	–	–	–	–	–	–	IC50 (HCV replicon 1AY93H; [12]): 0.0041 nM; IC50 (HCV replicon 1A; [9]): 2.3 pM; IC50 (HCV replicon 2B; [13]): 0.0161 nM; IC50 (HCV replicon 1AQ30D; [7]): 0.0824 nM; IC50 (HCV replicon 1B; [8]): 2.8 pM
COC(=O)N[C@H](C(=O)N1CCC[C@H]1c1ncc(-c2cc(F)c3c(c2)OC(c2cc4c(s2)CCC4)n2c-3cc3cc(-c4cnc([C@@H]5CCCN5C(=O)[C@@H](NC(=O)OC)C5CCOCC5)[nH]4)ccc32)[nH]1)C(C)C (single isomer, unassigned) [Compound 622]	0.0044 nM	2.4 pM	0.0068 nM	2.2 pM	–	–	–	IC50 (HCV replicon 1AQ30D; [3]): 0.0594 nM

— US20160257697A1, “THIOPHENE-SUBSTITUTED TETRACYCLIC COMPOUNDS AND METHODS OFUSE THEREOF FOR THE TREATMENT OF VIRAL DISEASES” (priority 2013, published 2016)
